# Assays:
# [1] = biological target: T1, human Cereblon WT GST-tagged protein (Homo sapiens, UniProt Q96SW2); test: CRBN-binding affinity, HTRF (CEREBLON BINDING kit); conditions: displacement of Thalidomide-Re reagent, 3 hours at room temperature
# T1 construct: purchased CISBIO 64BDCRBNPEH
# Experimental: The CEREBLON BINDING kits (specification: 10,000 tests; product number: Catalog #64BDCRBNPEH; CISBIO company) was used to determine the CRBN binding ability of the compounds to be tested through a HTRF method (homogeneous time-resolved fluorescence). The specific methods are as follows: • 1. […] Then, 2.5 μL of human Cereblon WT GST-tagged protein solution was added to each well. Finally, 5 μL of the thoroughly mixed Thalidomide-Re reagent and GST Eu antibody working solution were added to each of the aforementioned wells. […] The blank control wells were sequentially added with 2.5 μL of diluent #9 (1×) solution, 2.5 μL of PROTAC binding buffer, and 5 μL of thoroughly mixed Thalidomide-Re reagent and GST Eu antibody working solution. • 4.
# OD 620 nmcompound is the absorbance value of each well of the compounds to be tested of the present disclosure at an emission wavelength of 620 nm. […] OD 620 nmcontrol is the absorbance value of the blank control well at an emission wavelength of 620 nm. […] OD 620 nmStd0 is the absorbance value of the solvent control well at an emission wavelength of 620 nm.
# IKZF2 = biological target: T2, IKZF2 (Homo sapiens, UniProt Q96SW2+Q9UKS7); test: Western-blot assay, substrate protein in hPBMCs; format: cell-based; conditions: hPBMC cells, 24 hours, tested at 50 nM and 500 nM, table does not say which
# T2 construct: endogenous in cells; host or cells: human PBMCs (Milecell Biotechnologies)
# T2 sequence (Q9UKS7 whole entry): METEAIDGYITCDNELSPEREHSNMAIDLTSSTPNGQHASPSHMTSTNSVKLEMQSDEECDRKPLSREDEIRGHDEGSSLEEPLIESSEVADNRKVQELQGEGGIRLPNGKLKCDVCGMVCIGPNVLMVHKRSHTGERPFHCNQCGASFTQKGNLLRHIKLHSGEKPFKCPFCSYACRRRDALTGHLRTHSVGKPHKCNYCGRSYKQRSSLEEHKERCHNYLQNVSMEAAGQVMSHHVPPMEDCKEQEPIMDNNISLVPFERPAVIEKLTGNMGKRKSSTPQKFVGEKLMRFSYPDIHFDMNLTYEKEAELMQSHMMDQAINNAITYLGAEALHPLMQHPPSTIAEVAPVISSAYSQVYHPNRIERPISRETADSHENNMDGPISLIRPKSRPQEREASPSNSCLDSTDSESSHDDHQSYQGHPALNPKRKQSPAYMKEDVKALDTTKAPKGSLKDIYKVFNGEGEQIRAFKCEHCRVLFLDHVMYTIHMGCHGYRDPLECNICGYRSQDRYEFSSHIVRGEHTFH
# T2 sequence (Q96SW2 whole entry): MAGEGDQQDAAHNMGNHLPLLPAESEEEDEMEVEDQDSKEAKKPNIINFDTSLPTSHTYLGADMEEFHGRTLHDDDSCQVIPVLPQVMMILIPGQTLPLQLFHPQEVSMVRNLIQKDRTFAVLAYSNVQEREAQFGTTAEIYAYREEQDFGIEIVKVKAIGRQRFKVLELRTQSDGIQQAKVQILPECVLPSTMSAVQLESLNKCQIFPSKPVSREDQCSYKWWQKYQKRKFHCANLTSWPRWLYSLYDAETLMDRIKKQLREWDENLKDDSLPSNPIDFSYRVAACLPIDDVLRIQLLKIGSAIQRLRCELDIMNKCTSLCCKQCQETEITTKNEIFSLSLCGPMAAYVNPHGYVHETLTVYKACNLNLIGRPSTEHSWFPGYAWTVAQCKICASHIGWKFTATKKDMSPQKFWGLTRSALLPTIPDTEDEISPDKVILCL
# T2 sequence (Q16531 whole entry partner): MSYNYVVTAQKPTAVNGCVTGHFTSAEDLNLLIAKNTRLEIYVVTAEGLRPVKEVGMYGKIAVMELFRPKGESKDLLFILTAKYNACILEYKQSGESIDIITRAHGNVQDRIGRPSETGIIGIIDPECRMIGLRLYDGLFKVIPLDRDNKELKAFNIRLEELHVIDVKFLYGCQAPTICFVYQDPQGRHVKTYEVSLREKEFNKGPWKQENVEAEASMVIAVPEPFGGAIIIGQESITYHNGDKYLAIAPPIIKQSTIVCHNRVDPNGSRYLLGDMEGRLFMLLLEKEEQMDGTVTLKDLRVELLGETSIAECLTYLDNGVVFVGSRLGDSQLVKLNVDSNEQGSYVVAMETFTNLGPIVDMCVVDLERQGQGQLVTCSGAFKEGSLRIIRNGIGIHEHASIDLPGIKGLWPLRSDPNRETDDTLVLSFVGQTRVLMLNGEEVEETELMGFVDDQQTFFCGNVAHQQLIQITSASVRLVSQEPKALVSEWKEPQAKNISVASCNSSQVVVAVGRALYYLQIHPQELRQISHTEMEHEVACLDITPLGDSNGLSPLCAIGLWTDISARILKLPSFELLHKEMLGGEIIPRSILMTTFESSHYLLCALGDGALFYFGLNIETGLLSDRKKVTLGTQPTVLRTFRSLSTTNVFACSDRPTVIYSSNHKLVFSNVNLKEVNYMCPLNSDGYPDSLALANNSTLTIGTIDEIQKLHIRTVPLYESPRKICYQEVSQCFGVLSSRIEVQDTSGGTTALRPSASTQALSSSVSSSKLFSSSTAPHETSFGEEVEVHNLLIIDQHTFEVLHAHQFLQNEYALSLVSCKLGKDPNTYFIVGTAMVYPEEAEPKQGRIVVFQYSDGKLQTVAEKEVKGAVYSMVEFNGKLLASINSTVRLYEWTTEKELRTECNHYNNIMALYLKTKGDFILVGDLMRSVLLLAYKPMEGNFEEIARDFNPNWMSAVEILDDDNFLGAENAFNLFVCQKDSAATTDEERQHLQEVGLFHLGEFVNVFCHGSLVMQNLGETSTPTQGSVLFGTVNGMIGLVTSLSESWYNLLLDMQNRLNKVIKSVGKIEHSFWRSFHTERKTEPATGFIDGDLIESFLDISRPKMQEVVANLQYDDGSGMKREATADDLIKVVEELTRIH
# Experimental: (§1) The effect of the compounds of the present disclosure on the expression of target proteins in cells was detected using conventional Western blot analysis.
# (§2) Human peripheral blood mononuclear cells (hPBMCs) at a density of 1×10^6 cells/mL were thawed according to the PBMC Recovery Protocol (Milecell Biotechnologies Inc, Shanghai).
# (§3) After 24 hours of compounds treatment, cells were harvested and lysed in RIPA protein lysate containing phosphatase inhibitors on ice for 30-60 min, followed by centrifugation. The supernatant was aspirated as the extracted total cell protein. The protein concentration of the supernatant was determined using the conventional BCA (Bicinchoninic Acid) assay. The supernatant was then mixed with 4× SDS sample loading buffer, denatured at 95° C. for 5 minutes, and then subjected to SDS-PAGE electrophoresis on a polyacrylamide gel. Proteins were then transferred to a nitrocellulose (NC) membrane, blocked at room temperature for 1-2 h, and processed for antibody incubation and detection according to the manufacturer's instructions (Cell Signaling Technology).
# (§4) Half-Maximal Degradation Concentration value (the drug concentration required for degrading proteins by 50%, abbreviated as DC50) reads method: comparing the grayscale values of Western blot bands from drug-treated samples with those from blank DMSO-treated controls, and identifying the drug concentration range at which the grayscale value is half that of the DMSO-treated control bands.
# (§5) DC50 values can be calculated using ImageJ software to measure grayscale values of Western blot bands from drug-treated samples. The concentration-response curve is fitted to estimate the drug concentration corresponding to half the grayscale value.
# (§6) Target protein remaining (%) refers to the percentage of target protein remaining in hPBMC cells after treatment with protein degrader compounds.
# (§7) Calculation method for protein remaining (%): Use ImageJ software to measure grayscale values of Western blot bands from drug (protein degrader)-treated samples. The grayscale value of drug-treated bands is divided by that of internal control protein bands, and the resulting quotient is normalized to obtain the relative percentage of remaining target protein after protein degrader treatment.
# (§8) Target protein degradation rate (%)=100%−target protein remaining (%).
# Wee1 = biological target: T3, Wee1 (Homo sapiens, UniProt P30291+Q96SW2); test: Western-blot assay, substrate protein in hPBMCs; format: cell-based; conditions: hPBMC cells, 24 hours, tested at 50 nM and 500 nM, table does not say which
# T3 construct: endogenous in cells; host or cells: human PBMCs (Milecell Biotechnologies)
# T3 sequence (P30291 whole entry): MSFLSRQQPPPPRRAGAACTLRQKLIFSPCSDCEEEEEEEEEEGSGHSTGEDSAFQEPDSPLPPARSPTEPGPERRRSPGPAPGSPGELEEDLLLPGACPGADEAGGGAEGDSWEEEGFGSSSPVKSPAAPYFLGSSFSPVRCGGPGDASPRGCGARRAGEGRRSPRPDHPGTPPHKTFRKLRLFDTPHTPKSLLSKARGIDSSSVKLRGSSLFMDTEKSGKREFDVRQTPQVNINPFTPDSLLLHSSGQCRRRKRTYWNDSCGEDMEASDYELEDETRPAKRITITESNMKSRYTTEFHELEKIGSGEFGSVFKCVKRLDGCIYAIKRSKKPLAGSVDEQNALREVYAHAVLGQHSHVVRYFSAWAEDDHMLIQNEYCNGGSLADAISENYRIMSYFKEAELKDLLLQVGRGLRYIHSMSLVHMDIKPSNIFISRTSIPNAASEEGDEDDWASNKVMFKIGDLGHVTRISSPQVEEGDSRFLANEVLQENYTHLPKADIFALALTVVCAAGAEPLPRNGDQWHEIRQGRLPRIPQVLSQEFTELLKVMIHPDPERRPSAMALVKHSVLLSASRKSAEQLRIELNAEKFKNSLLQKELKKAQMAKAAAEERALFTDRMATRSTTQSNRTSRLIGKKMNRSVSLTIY
# T3 sequence (Q96SW2 whole entry): as the sequence (Q96SW2 whole entry) above
# T3 sequence (Q16531 whole entry partner): as the sequence (Q16531 whole entry partner) above
# Experimental: as §1, §2, §3, §4, §5, §6, §7, §8
# GSPT1 = biological target: T4, GSPT1 (Homo sapiens, UniProt P15170+Q96SW2); test: Western-blot assay, substrate protein in hPBMCs; format: cell-based; conditions: hPBMC cells, 24 hours, tested at 50 nM and 500 nM, table does not say which
# T4 construct: endogenous in cells; host or cells: human PBMCs (Milecell Biotechnologies)
# T4 sequence (P15170 whole entry): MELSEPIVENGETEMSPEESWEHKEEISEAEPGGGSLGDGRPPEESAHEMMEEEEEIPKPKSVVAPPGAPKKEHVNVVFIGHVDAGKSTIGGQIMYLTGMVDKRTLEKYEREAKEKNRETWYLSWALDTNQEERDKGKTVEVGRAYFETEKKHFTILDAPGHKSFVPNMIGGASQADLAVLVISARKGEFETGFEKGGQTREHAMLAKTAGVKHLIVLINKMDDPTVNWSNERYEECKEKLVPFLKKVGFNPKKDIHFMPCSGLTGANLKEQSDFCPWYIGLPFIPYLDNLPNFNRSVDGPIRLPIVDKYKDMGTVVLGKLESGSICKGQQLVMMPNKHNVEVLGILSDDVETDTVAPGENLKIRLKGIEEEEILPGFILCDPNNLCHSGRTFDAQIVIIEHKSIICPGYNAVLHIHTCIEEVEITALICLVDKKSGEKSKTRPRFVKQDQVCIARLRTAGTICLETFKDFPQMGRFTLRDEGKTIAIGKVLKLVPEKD
# T4 sequence (Q96SW2 whole entry): as the sequence (Q96SW2 whole entry) above
# T4 sequence (Q16531 whole entry partner): as the sequence (Q16531 whole entry partner) above
# Experimental: as §1, §2, §3, §4, §5, §6, §7, §8
# CK1α = biological target: T5, CK1α (Homo sapiens, UniProt P48729+Q96SW2); test: Western-blot assay, substrate protein in hPBMCs; format: cell-based; conditions: hPBMC cells, 24 hours, tested at 50 nM and 500 nM, table does not say which
# T5 construct: endogenous in cells; host or cells: human PBMCs (Milecell Biotechnologies)
# T5 sequence (P48729 whole entry): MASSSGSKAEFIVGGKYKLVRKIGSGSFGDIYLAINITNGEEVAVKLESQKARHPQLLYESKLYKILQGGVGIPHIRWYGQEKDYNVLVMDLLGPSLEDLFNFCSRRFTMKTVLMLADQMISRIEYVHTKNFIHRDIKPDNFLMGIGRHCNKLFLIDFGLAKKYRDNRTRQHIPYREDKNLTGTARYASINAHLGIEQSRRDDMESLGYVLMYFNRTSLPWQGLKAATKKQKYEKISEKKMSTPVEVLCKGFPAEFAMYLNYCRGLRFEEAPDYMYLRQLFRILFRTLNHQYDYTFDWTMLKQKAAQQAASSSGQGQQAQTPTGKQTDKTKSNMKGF
# T5 sequence (Q96SW2 whole entry): as the sequence (Q96SW2 whole entry) above
# T5 sequence (Q16531 whole entry partner): as the sequence (Q16531 whole entry partner) above
# Experimental: as §1, §2, §3, §4, §5, §6, §7, §8
# T1 sequence (Q96SW2 whole entry): as the sequence (Q96SW2 whole entry) above
IC50 [1] [nM],SMILES,substrate protein remaining % (IKZF2),substrate protein remaining % (Wee1),substrate protein remaining % (GSPT1),substrate protein remaining % (CK1α)
1000 to 1900,"O=C1CCC(N2Cc3cc(SC4CC5CN(Cc6ccccc6-c6ccc(Cl)cc6)CC5C4)ccc3C2=O)C(=O)N1 (centres unmarked) [GT-06914, 3-(5-((2-((4′-chloro-[1,1′-biphenyl]-2-yl)methyl)octahydrocyclopenta[c]pyrrol-5-yl)thio)-1-oxoisoindolin-2-yl)piperidine-2,6-dione]",A (0%≤ substrate protein remaining % ≤80%),A (0%≤ substrate protein remaining % ≤80%),,
500 to 1000,"CC1(C)CCC(C(=O)N2CCC(Oc3ccc4c(c3)CN(C3CCC(=O)NC3=O)C4=O)CC2)=C(c2ccc(Cl)cc2)C1 (centres unmarked) [GT-06192, 3-(5-((1-(4′-chloro-5,5-dimethyl-3,4,5,6-tetrahydro-[1,1′-biphenyl]-2-carbonyl)piperidin-4-yl)oxy)-1-oxoisoindolin-2-yl)piperidine-2,6-dione]",A (0%≤ substrate protein remaining % ≤80%),A (0%≤ substrate protein remaining % ≤80%),,
1000 to 1900,"CC1(C)CCC(C(=O)N2CCCC(Sc3ccc4c(c3)CN(C3CCC(=O)NC3=O)C4=O)CC2)=C(c2ccc(Cl)cc2)C1 (centres unmarked) [GT-06642, 3-(5-((1-(4′-chloro-5,5-dimethyl-3,4,5,6-tetrahydro-[1,1′-biphenyl]-2-carbonyl)azepan-4-yl)thio)-1-oxoisoindolin-2-yl)piperidine-2,6-dione]",A (0%≤ substrate protein remaining % ≤80%),,A (0%≤ substrate protein remaining % ≤80%),
1000 to 1900,"O=C1CCC(N2Cc3cc(OC4CCN(Cc5ccccc5-c5ccc(Cl)cc5)CC4)ccc3C2=O)C(=O)N1 (centres unmarked) [GT-06193, 3-(5-((1-((4′-chloro-[1,1′-biphenyl]-2-yl)methyl)piperidin-4-yl)oxy)-1-oxoisoindolin-2-yl)piperidine-2,6-dione]",A (0%≤ substrate protein remaining % ≤80%),A (0%≤ substrate protein remaining % ≤80%),A (0%≤ substrate protein remaining % ≤80%),
1000 to 1900,"O=C1CCC(N2Cc3cc(SC4CCCN(Cc5ccccc5-c5ccc(Cl)cc5)CC4)ccc3C2=O)C(=O)N1 (centres unmarked) [GT-06643, 3-(5-((1-((4′-chloro-[1,1′-biphenyl]-2-yl)methyl)azepan-4-yl)thio)-1-oxoisoindolin-2-yl)piperidine-2,6-dione]",A (0%≤ substrate protein remaining % ≤80%),A (0%≤ substrate protein remaining % ≤80%),,
< 500,"CC1(C)CC(c2ccc(Cl)cc2)=C(CN2CC(Oc3ccc4c(c3)CN(C3CCC(=O)NC3=O)C4=O)C2)CO1 (centres unmarked) [GT-06561, 3-(5-((1-((4-(4-chlorophenyl)-6,6-dimethyl-5,6-dihydro-2H-pyran-3-yl)methyl)azetidin-3-yl)oxy)-1-oxoisoindolin-2-yl)piperidine-2,6-dione]",A (0%≤ substrate protein remaining % ≤80%),A (0%≤ substrate protein remaining % ≤80%),,
< 500,"O=C1CCC(N2Cc3cc(SC4CN(CC5=C(c6ccc(F)cc6)CCCC5)C4)ccc3C2=O)C(=O)N1 (centres unmarked) [GT-06301, 3-(5-((1-((4′-fluoro-3,4,5,6-tetrahydro-[1,1′-biphenyl]-2-yl)methyl)azetidin-3-yl)thio)-1-oxoisoindolin-2-yl)piperidine-2,6-dione]",A (0%≤ substrate protein remaining % ≤80%),A (0%≤ substrate protein remaining % ≤80%),A (0%≤ substrate protein remaining % ≤80%),
500 to 1000,"O=C1CCC(N2Cc3cc(SC4CC5(CCNCC5)C4)ccc3C2=O)C(=O)N1 (centres unmarked) [GT-06997, 3-(5-((7-azaspiro[3.5]nonan-2-yl)thio)-1-oxoisoindolin-2-yl)piperidine-2,6-dione]",A (0%≤ substrate protein remaining % ≤80%),,A (0%≤ substrate protein remaining % ≤80%),
500 to 1000,"O=C1CCC(N2Cc3cc(SC4CCN(C(c5ccccc5)c5ccccc5)C4)ccc3C2=O)C(=O)N1 (centres unmarked) [GT-06196, 3-(5-((1-benzhydrylpyrrolidin-3-yl)thio)-1-oxoisoindolin-2-yl)piperidine-2,6-dione]",A (0%≤ substrate protein remaining % ≤80%),,A (0%≤ substrate protein remaining % ≤80%),A (0%≤ substrate protein remaining % ≤80%)
< 500,"O=C1CCC(N2Cc3cc(SC4CN(C(c5ccccc5)c5ccccn5)C4)ccc3C2=O)C(=O)N1 (centres unmarked) [GT-06518, 3-(1-oxo-5-((1-(phenyl(pyridin-2-yl)methyl)azetidin-3-yl)thio)isoindolin-2-yl)piperidine-2,6-dione]",A (0%≤ substrate protein remaining % ≤80%),,A (0%≤ substrate protein remaining % ≤80%),A (0%≤ substrate protein remaining % ≤80%)
1000 to 1900,"CC1(C)CCC(CN2CC3CC(Sc4ccc5c(c4)CN(C4CCC(=O)NC4=O)C5=O)CC3C2)=C(c2ccc(Cl)cc2)C1 (centres unmarked) [GT-06813, 3-(5-((2-((4′-chloro-5,5-dimethyl-3,4,5,6-tetrahydro-[1,1′-biphenyl]-2-yl)methyl)octahydro-cyclopenta[c]pyrrol-5-yl)thio)-1-oxoisoindolin-2-yl)piperidine-2,6-dione]",A (0%≤ substrate protein remaining % ≤80%),A (0%≤ substrate protein remaining % ≤80%),A (0%≤ substrate protein remaining % ≤80%),
< 500,"CC1(C)CCC(C(=O)N2C[C@H]3CC(Oc4ccc5c(c4)CN(C4CCC(=O)NC4=O)C5=O)C[C@@H]3C2)=C(c2ccc(Cl)cc2)C1 (stereo partly drawn) [GT-07025, 3-(5-(((3aS,6aS)-2-(4′-chloro-5,5-dimethyl-3,4,5,6-tetrahydro-[1,1′-biphenyl]-2-carbonyl)octahydro-cyclopenta[c]pyrrol-5-yl)oxy)-1-oxoisoindolin-2-yl)piperidine-2,6-dione]",A (0%≤ substrate protein remaining % ≤80%),,,A (0%≤ substrate protein remaining % ≤80%)
< 500,"O=C1CCC(N2Cc3cc(SC4C[C@@H]5CN(C(=O)c6ccccc6-c6ccc(Cl)cc6)C[C@@H]5C4)ccc3C2=O)C(=O)N1 (stereo partly drawn) [GT-07024, 3-(5-(((3aR,6aS)-2-(4′-chloro-[1,1′-biphenyl]-2-carbonyl)octahydro-cyclopenta[c]pyrrol-5-yl)thio)-1-oxoisoindolin-2-yl)piperidine-2,6-dione]",A (0%≤ substrate protein remaining % ≤80%),A (0%≤ substrate protein remaining % ≤80%),,
< 500,"O=C1CCC(N2Cc3cc(OC4CN(C(c5ccccc5F)c5ccccc5F)C4)ccc3C2=O)C(=O)N1 (centres unmarked) [GT-06759, 3-(5-((1-(bis(2-fluorophenyl)methyl)azetidin-3-yl)oxy)-1-oxoisoindolin-2-yl)piperidine-2,6-dione]",A (0%≤ substrate protein remaining % ≤80%),,A (0%≤ substrate protein remaining % ≤80%),
